Assays:
[1] = Inhibitory activity against bovine pancreatic alpha-chymotrypsin (alpha-CT)
[2] = Inhibitory activity against porcine pancreatic trypsin (TRP)
[3] = Inhibitory activity against porcine pancreatic elastase (PPE)
[4] = Inhibitory activity against porcine pancreatic trypsin (TRP); remark: listed apart in the source

| Compound | IC50 [1] | IC50 [2] | IC50 [3] | IC50 [4] |
| --- | --- | --- | --- | --- |
| CC(C)(C(=O)OC(=O)C(C)(C)C(CCc1ccccc1)NC(=O)c1ccccc1)C(CCc1ccccc1)NC(=O)c1ccccc1 (centres undefined) [1,1-dimethyl-4-phenyl-2-phenylcarboxamidopentanoic anhydride] | 18 nM | 2700 nM | 64 nM | – |
| CCCCCC(NC(=O)CCC)C(C)(C)C(=O)OC(=O)C(C)(C)C(CCCCC)NC(=O)CCC (centres undefined) [1,1-dimethyl-2-propylcarboxamidooctanoic anhydride] | 810 nM | 18000 nM | 55 nM | – |
| CC(C)(C(=O)OC(=O)C(C)(C)C(NC(=O)c1ccc(C#N)cc1)c1ccccc1Cl)C(NC(=O)c1ccc(C#N)cc1)c1ccccc1Cl (centres undefined) [2-(2-chlorophenyl)-2-(4-cyanophenylcarboxamido)-1,1-dimethylpropanoic anhydride] | 250 nM | – | 1100 nM | 8.2 µM |
| CC(C)(CNC(=O)c1ccccc1)C(=O)OC(=O)C(C)(C)CNC(=O)c1ccccc1 [1,1-dimethyl-2-phenylcarboxamidopropanoic anhydride] | 140 nM | 990 nM | 2600 nM | – |
| CC(C)(C(=O)OC(=O)C(C)(C)C(NC(=O)c1ccc(C#N)cc1)C1CC=CCC1)C(NC(=O)c1ccc(C#N)cc1)C1CC=CCC1 (centres undefined) [2-(4-cyanophenylcarboxamido)-2-cyclohex-3-enyl-1,1-dimethylpropanoic anhydride] | 220 nM | 1600 nM | 180 nM | – |
| CC(C)(C(=O)OC(=O)C(C)(C)C(NC(=O)c1ccc(C#N)cc1)c1ccccc1)C(NC(=O)c1ccc(C#N)cc1)c1ccccc1 (centres undefined) [2-(4-cyanophenylcarboxamido)-1,1-dimethyl-2-phenylpropanoic anhydride] | 15 nM | – | 210 nM | 1.8 µM |
| CCCC(=O)NC(CCc1ccccc1)C(C)(C)C(=O)OC(=O)C(C)(C)C(CCc1ccccc1)NC(=O)CCC (centres undefined) [1,1-dimethyl-4-phenyl-2-propylcarboxamidopentanoic anhydride] | – | 1200 nM | – | – |
| Cc1ccccc1C(NC(=O)c1ccc(C#N)cc1)C(C)(C)C(=O)OC(=O)C(C)(C)C(NC(=O)c1ccc(C#N)cc1)c1ccccc1C (centres undefined) [2-(4-cyanophenylcarboxamido)-1,1-dimethyl-2-(2-methylphenyl)propanoic anhydride] | 190 nM | – | 2100 nM | 18 µM |
| CC(C)(C(=O)OC(=O)C(C)(C)C(CCc1ccccc1)NC(=O)c1ccc(C#N)cc1)C(CCc1ccccc1)NC(=O)c1ccc(C#N)cc1 (centres undefined) [[2,2-dimethyl-3-(N-(4-cyanobenzoyl)aminoi)-5-phenylpentanoic anhydride]] | 2.1 nM | – | 36 nM | 0.3 µM |

The next lines start with the values.

| IC50 [1] | IC50 [2] | IC50 [3] | IC50 [4] | Compound |
| --- | --- | --- | --- | --- |
| 31 nM | 3900 nM | 61 nM | – | CCCCCC(NC(=O)c1ccccc1)C(C)(C)C(=O)OC(=O)C(C)(C)C(CCCCC)NC(=O)c1ccccc1 (centres undefined) [1,1-dimethyl-2-phenylcarboxamidooctanoic anhydride] |
| 72 nM | 2200 nM | 210 nM | – | CCC(NC(=O)c1ccccc1)C(C)(C)C(=O)OC(=O)C(C)(C)C(CC)NC(=O)c1ccccc1 (centres undefined) [1,1-dimethyl-2-phenylcarboxamidopentanoic anhydride] |
| 5.3 nM | 2900 nM | 34 nM | – | CCCCC(NC(=O)c1ccccc1)C(C)(C)C(=O)OC(=O)C(C)(C)C(CCCC)NC(=O)c1ccccc1 (centres undefined) [1,1-dimethyl-2-phenylcarboxamidoheptanoic anhydride] |
| 44 nM | 3300 nM | 180 nM | – | CCCCCCC(NC(=O)c1ccccc1)C(C)(C)C(=O)OC(=O)C(C)(C)C(CCCCCC)NC(=O)c1ccccc1 (centres undefined) [1,1-dimethyl-2-phenylcarboxamidononanoic anhydride] |
| 49 nM | 8800 nM | – | – | CCCC(NC(=O)c1ccccc1)C(C)(C)C(=O)OC(=O)C(C)(C)C(CCC)NC(=O)c1ccccc1 (centres undefined) [1,1-dimethyl-2-phenylcarboxamidohexanoic anhydride] |
